In US11679107B2 (Eisai R&D Management Co., Ltd., priority 2018, dated 2023):
Like-named read-outs stand apart in the source and are kept apart here.

Legend:
[1] = system: Ad2 variant pre-mRNAs spliced in HeLa S3 nuclear extracts; assay: In vitro splicing assay (IVS), RT-qPCR of spliced product; type: biochemical; details: for IC50: geometric mean
In short: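 Ad2 variant pre-mRNA (2 ng) with FTZΔi control RNA in HeLa S3 nuclear extract (8 μg) was pre-incubated with compound or DMSO for 15 min at 30 °C. Splicing ran 90 min at 30 °C after adding 0.5 mM ATP, creatine phosphate and MgCl2. Spliced product was quantified by TaqMan RT-qPCR, normalized to DMSO, and curve-fitted.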

SF3b complexes = molecular target: T1, SF3b complexes (Homo sapiens, UniProt O75533+Q7RTV0); assay: Scintillation proximity assay (SPA) with [3H]-labelled pladienolide probe; type: binding; details: SF3B1 (WT); geometric mean; read-out: SPA-ATS GMean IC50 (nM) SF3B1 (WT)
T1 construct: endogenous in cells; host or cells: Nuclear extracts; A HeLa S3 extract preparation is described for the in vitro splicing assay
In short: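 SF3b complexes captured from nuclear extracts on anti-SF3B1 antibody SPA beads; test compounds pre-incubated 30 min before 2.5 nM [3H]-pladienolide probe added, then 30 min incubation. Bound probe read by scintillation; values from non-linear regression of concentration–response curves.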

[2] = system: Panc 05.04 cells (SF3b K700E mutant); assay: Cell proliferation and viability, CellTiter-Glo, 72 hours; type: cell-based; details: for GI50: geometric mean
In short: (§1)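 Cells grown in RPMI-1640 with 10% FBS (Panc 05.04 with added insulin, 15% FBS total) were exposed to an 11-point half-log dilution, typically 10 μM–100 pM, at 0.1% DMSO for 72 h at 37 °C. ATP content was read by CellTiter-Glo luminescence. Percent inhibition was set against a time-zero plate and DMSO vehicle wells, on a −100% (cidal) to 100% (uninhibited growth) scale.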

[3] = system: NCI-H1568 cells (high MCL1); assay: as above; type: cell-based; details: for GI50: geometric mean
In short: as §1

[4] = Ad2.1 pre-mRNA substrate, read-out: qPCR-IVS-ATS GMean IC50 (nM) Ad2.1
[5] = Ad2.2 pre-mRNA substrate, read-out: qPCR-IVS-ATS GMean IC50 (nM) Ad2.2
[6] = PANC0504.1 cells, 72 h, −100% cidal, 0% static, 100% maximal growth
[7] = Panc 05.04, read-out: CTGlo-ATS GMean GI50 (nM) 72 h PANC0504.1, PANC0504.1 cells, 72 h
[8] = NCI-H1568, read-out: CTGlo-ATS GMean GI50 (nM) 72 h NCIH1568.1, NCIH1568.1 cells, 72 h
[9] = NCIH1568.1 cells, 72 h, −100% cidal, 0% static, 100% maximal growth
[10] = Panc 05.04, 72 h, read-out: CTGlo-ATS GMean GI50 (nM) 72 h PANC0504.1, PANC0504.1 cells, 72 h
[11] = NCI-H1568, 72 h, read-out: CTGlo-ATS GMean GI50 (nM) 72 h NCIH1568.1, NCIH1568.1 cells, 72 h

| SMILES | IC50 [1, 4] | IC50 [1, 5] | IC50 (SF3b complexes) | CTGlo-ATS Mean MinResponse % 72 h PANC0504.1 [2, 6] | GI50 [2, 7] | GI50 [3, 8] | CTGlo-ATS Mean MinResponse % 72 h NCIH1568.1 [3, 9] | GI50 [2, 10] | GI50 [3, 11] | Ratio Ad2.1/2.2 ([1]; ratio of IVS IC50 Ad2.1 to Ad2.2) | CTGlo-ATS Mean MinResponse % 72 h PANC0504.1 ([2]; 72 h, PANC0504.1, -100% = cidal, 0% = static, 100% = uninhibited growth) | GI50 ([2]; Panc 05.04, read-out: CTGlo-ATS GMean GI50 (nM) 72 h PANC0504.1, 72 h, PANC0504.1) | CTGlo-ATS Mean MinResponse % 72 h NCIH1568.1 ([3]; 72 h, NCIH1568.1, -100% = cidal, 0% = static, 100% = uninhibited growth) | GI50 ([3]; NCI-H1568, read-out: CTGlo-ATS GMean GI50 (nM) 72 h NCIH1568.1, 72 h, NCIH1568.1) |
| --- | --- | --- | --- | --- | --- | --- | --- | --- | --- | --- | --- | --- | --- | --- |
| C/C(=C\c1cc(S(=O)(=O)N2CCC(O)CC2)ccc1F)[C@H]1OC(=O)C[C@H](O)CC[C@H](C)[C@@H](OC(=O)N2CCN(C)CC2)/C=C/[C@@H]1C [Compound 91, [(2S,3S,4E,6R,7S,10R)-2-[(E)-1-[2-fluoro-5-(4-hydroxypiperidin-l-yl)sulfonylphenyl]prop-1-en-2-yl]-10-hydroxy-3,7-dimethyl-12-oxo-1-oxacyclododec-4-en-6-yl] 4-methylpiperazine-1-carboxylate] | 14.7 nM | 18.9 nM | 6.04 nM | −90.776% | 4.64 nM | 6.86 nM | −64.491% | – | – | – | – | – | – | – |
| C/C(=C\c1cccc(S(=O)(=O)N2CCN(C=O)CC2)c1)[C@H]1OC(=O)C[C@H](O)CC[C@H](C)[C@@H](OC(=O)N2CCN(C)CC2)/C=C/[C@@H]1C [Compound 94] | 5570 nM | 37.5 nM | 7.48 nM | −94.671% | 30.4 nM | 35.5 nM | −40.948% | – | – | – | – | – | – | – |
| C/C(=C\c1cc(F)cc(N2CCOCC2)c1)[C@H]1OC(=O)C[C@H](O)CC[C@H](C)[C@@H](OC(=O)N2CCN(C3CCCC3)CC2)/C=C/[C@@H]1C [Compound 27] | 39.9 nM | 42.3 nM | 10.5 nM | −84.822% | 11.9 nM | 12.3 nM | −71.773% | – | – | – | – | – | – | – |
| C/C(=C\c1cccc(S(=O)(=O)N2CCNCC2)c1)[C@H]1OC(=O)C[C@H](O)CC[C@H](C)[C@@H](OC(=O)N2CCN(C)CC2)/C=C/[C@@H]1C [Compound 93] | 219 nM | 41.6 nM | 24.7 nM | −97.726% | 109 nM | 73.8 nM | −57.108% | – | – | – | – | – | – | – |
| C/C(=C\c1cc(F)cc(N2CCN(CC(=O)C3CC3)CC2)c1)[C@H]1OC(=O)C[C@H](O)CC[C@H](C)[C@@H](OC(=O)N2CCN(C)CC2)/C=C/[C@@H]1C [Compound 84] | 29.6 nM | 22.1 nM | 2.75 nM | −89.010% | 5.61 nM | 4.3 nM | −80.428% | – | – | – | – | – | – | – |
| C/C(=C\c1ccc2ccnc(O)c2c1)[C@H]1OC(=O)C[C@H](O)CC[C@H](C)[C@@H](OC(=O)N2CCN(C)CC2)/C=C/[C@@H]1C [Compound 127] | > 25000 nM | 452 nM | 19.1 nM | 11.995% | – | – | −18.734% | 1070 nM | 835 nM | – | – | – | – | – |
| C/C(=C\c1cc(F)cc(N2CCOCC2)c1)[C@H]1OC(=O)C[C@H](O)CC[C@H](C)[C@@H](OC(=O)N(C)C2CCCN(C)C2)/C=C/[C@@H]1C (stereo partly drawn) [Compound 37] | 85.8 nM | 20.2 nM | 2.27 nM | −86.134% | 4.61 nM | 4.75 nM | −82.247% | – | – | – | – | – | – | – |
| C/C(=C\c1cc(F)cc(N2CCOCC2)c1)[C@H]1OC(=O)C[C@H](O)CC[C@H](C)[C@@H](OC(=O)N2CCN(CC(F)(F)F)CC2)/C=C/[C@@H]1C [Compound 92, [(2S,3S,4E,6R,7S,10R)-2-[(E)-1-(3-fluoro-5-morpholin-4-ylphenyl)prop-1-en-2-yl]-10-hydroxy-3,7-dimethyl-12-oxo-1-oxacyclododec-4-en-6-yl] 4-(2,2,2-trifluoroethyl)piperazine-1-carboxylate] | > 25000 nM | 664 nM | 80 nM | −37.359% | 433 nM | 401 nM | −3.918% | – | – | – | – | – | – | – |
| C/C(=C\c1cc(F)cc(N2CCN(CCO)CC2)c1)[C@H]1OC(=O)C[C@H](O)CC[C@H](C)[C@@H](OC(=O)N2CCN(C)CC2)/C=C/[C@@H]1C [Compound 12] | 14.7 nM | 13.5 nM | 4.88 nM | −73.954% | 7.55 nM | 3.64 nM | −92.161% | – | – | – | – | – | – | – |
| C/C(=C\c1cc(F)cc(N2CCN(C(=O)C3CCOC3)CC2)c1)[C@H]1OC(=O)C[C@H](O)CC[C@H](C)[C@@H](OC(=O)N2CCN(C)CC2)/C=C/[C@@H]1C (stereo partly drawn) [Compound 143] | 19.2 nM | 17.2 nM | 3.2 nM | −87.719% | – | – | −84.803% | 3.67 nM | 1.75 nM | – | – | – | – | – |
| C/C(=C\c1cccc(S(=O)(=O)NC(C)(C)C)c1)[C@H]1OC(=O)C[C@H](O)CC[C@H](C)[C@@H](OC(=O)N2CCN(C)CC2)/C=C/[C@@H]1C [Compound 208, [(2S,3S,4E,6R,7S,10R)-2-[(E)-1-[3-(tert-butylsulfamoyl)phenyl]prop-1-en-2-yl]-10-hydroxy-3,7-dimethyl-12-oxo-1-oxacyclododec-4-en-6-yl] 4-methylpiperazine-1-carboxylate] | 1380 nM | 25.1 nM | 1.77 nM | – | – | – | – | – | – | 54.813 | −94.342% | 9.27 nM | −47.371% | 11.6 nM |
| C/C(=C\c1cc(F)c2nnn(C3CCOCC3)c2c1)[C@H]1OC(=O)C[C@H](O)CC[C@H](C)[C@@H](OC(=O)N2CCN(C)CC2)/C=C/[C@@H]1C [Compound 140] | 11.6 nM | 11.8 nM | 1.73 nM | −80.398% | 1.63 nM | 1.25 nM | −82.434% | – | – | – | – | – | – | – |
| C/C(=C\c1cc(F)cc(N2CCN(S(=O)(=O)CCN3CCOCC3)CC2)c1)[C@H]1OC(=O)C[C@H](O)CC[C@H](C)[C@@H](OC(=O)N2CCN(C)CC2)/C=C/[C@@H]1C [Compound 73] | 13.1 nM | 13.6 nM | 2.42 nM | −79.201% | 6.91 nM | 5.85 nM | −76.720% | – | – | – | – | – | – | – |
| C/C(=C\c1ccc2c(C)nn(C)c2c1)[C@H]1OC(=O)C[C@H](O)CC[C@H](C)[C@@H](OC(=O)N2CCN(C)CC2)/C=C/[C@@H]1C [Compound 50] | 17900 nM | 60.2 nM | 1.46 nM | −82.642% | 28.3 nM | 43.6 nM | −65.255% | – | – | – | – | – | – | – |
